Test results published in PubChem BioAssay AID256 (DTP/NCI, 2004).
Several values for one entry are separate records, joined by “and”; a condition that tells them apart may be missing. Identical values can stand only once. Inconclusive results and toxic doses are left out.

System: CD2F1 mice, L1210 leukemia ip, survival T/C
Test: NCI In Vivo Anticancer Drug Screen. Data for tumor model L1210 Leukemia (intraperitoneal) in CD2F1 (CDF1) mice
Conditions: higher = longer survival
How it was run: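 Implant tumor; dose compound or vehicle; measure endpoint in both groups; report treated divided by control.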

[1] = endpoint: mean survival time, dose: 100.0 mg/kg/injection, schedule: Q04DX003 (ip), vehicle: saline with Tween-80
[2] = endpoint: mean survival time, dose: 200.0 mg/kg/injection, schedule: Q04DX003 (ip), vehicle: saline with Tween-80
[3] = endpoint: mean survival time, dose: 100.0 mg/kg/injection, schedule: Q01DX009 (ip), vehicle: saline with Tween-80
[4] = endpoint: mean survival time, dose: 200.0 mg/kg/injection, schedule: Q01DX009 (ip), vehicle: saline with Tween-80
[5] = endpoint: mean survival time, dose: 400.0 mg/kg/injection, schedule: Q01DX009 (ip), vehicle: saline with Tween-80
[6] = endpoint: mean survival time, dose: 400.0 mg/kg/injection, schedule: Q04DX003 (ip), vehicle: saline with Tween-80
[7] = endpoint: mean survival time, dose: 50.0 mg/kg/injection, schedule: Q01DX009 (ip), vehicle: saline with Tween-80

## CC(C)CCC(C(=O)O)C(=O)O
endpoint: mean survival time, dose: 75.0 mg/kg/injection, schedule: Q01DX001 (ip), vehicle: saline
  T/C: 96 % of control
endpoint: mean survival time, dose: 150.0 mg/kg/injection, schedule: Q01DX001 (ip), vehicle: saline
  T/C: 102 % of control

## Cc1csc(C)[n+]1C
endpoint: mean survival time, dose: 25.0 mg/kg/injection, schedule: Q01DX009 (ip), vehicle: saline sonified
  T/C: 102 % of control
endpoint: mean survival time, dose: 50.0 mg/kg/injection, schedule: Q01DX009 (ip), vehicle: saline sonified
  T/C: 104 % of control
endpoint: mean survival time, dose: 100.0 mg/kg/injection, schedule: Q01DX001 (ip), vehicle: saline with Tween-80
  T/C: 100 % of control
endpoint: mean survival time, dose: 100.0 mg/kg/injection, schedule: Q01DX009 (ip), vehicle: saline sonified
  T/C: 98 % of control

## CC(=O)OC1COC(NC(=O)N(CCCl)N=O)C(OC(C)=O)C1OC(C)=O (stereo unspecified)
endpoint: median survival time, dose: 0.75 mg/kg/injection, schedule: Q01DX009 (ip), vehicle: saline with Tween-80
  T/C: 115 % of control and 122 % of control and 111 % of control
endpoint: median survival time, dose: 3.0 mg/kg/injection, schedule: Q01DX009 (ip), vehicle: saline with Tween-80
  T/C: 150 % of control and 166 % of control
endpoint: median survival time, dose: 6.0 mg/kg/injection, schedule: Q01DX009 (ip), vehicle: saline with Tween-80
  T/C: 168 % of control and 191 % of control and 205 % of control
endpoint: median survival time, dose: 12.0 mg/kg/injection, schedule: Q01DX009 (ip), vehicle: saline with Tween-80
  T/C: 315 % of control and 322 % of control and 674 % of control

## N#CS.[Co+3].[NH-]CC[NH-].[NH-]CC[NH-].[NH-]CC[SH2+]
endpoint: mean survival time, dose: 100.0 mg/kg/injection, schedule: Q04DX002 (ip), vehicle: saline
  T/C: 112 % of control
endpoint: mean survival time, dose: 200.0 mg/kg/injection, schedule: Q04DX002 (ip), vehicle: saline
  T/C: 104 % of control
endpoint: mean survival time, dose: 400.0 mg/kg/injection, schedule: Q04DX002 (ip), vehicle: saline
  T/C: 108 % of control

## Cn1ccc(CON)n1
endpoint: mean survival time, dose: 100.0 mg/kg/injection, schedule: Q01DX009 (ip), vehicle: saline
  T/C: 94 % of control
endpoint: mean survival time, dose: 200.0 mg/kg/injection, schedule: Q01DX009 (ip), vehicle: saline
  T/C: 93 % of control

## CCOC(=O)Nc1cc2c(c(N)n1)N=C(CN(C)c1ccc(OC)cc1)CN2
endpoint: mean survival time, dose: 0.78 mg/kg/injection, schedule: Q01DX009 (ip), vehicle: Klucel (hydroxypropylcellulose) (HPC)
  T/C: 118 % of control

## CC(=O)Nc1ccc([N+](=O)[O-])cc1C
endpoint: mean survival time, dose: 50.0 mg/kg/injection, schedule: Q04DX003 (ip), vehicle: saline with Tween-80
  T/C: 101 % of control
[1]
  T/C: 100 % of control
[2]
  T/C: 103 % of control

## CCNC(=O)OCC1C2=C(C(=O)C(C)=C(N)C2=O)N2CC3C(N3C)C12OC (stereo unspecified)
endpoint: mean survival time, dose: 133.0 mg/kg/injection, schedule: Q01DX001 (ip), vehicle: carboxymethylcellulose (CMC)
  T/C: 118 % of control
endpoint: mean survival time, dose: 300.0 mg/kg/injection, schedule: Q01DX001 (ip), vehicle: carboxymethylcellulose (CMC)
  T/C: 111 % of control

## CC(=O)NC(C(=O)O)C(C)c1c[nH]c2ccccc12 (stereo unspecified)
[3]
  T/C: 104 % of control
[1]
  T/C: 97 % of control
[4]
  T/C: 96 % of control
[2]
  T/C: 97 % of control
[5]
  T/C: 95 % of control
[6]
  T/C: 91 % of control

## CN(C)CCCC#N
[7]
  T/C: 96 % of control
[3]
  T/C: 102 % of control

## CCOC(=O)c1ccc(Nc2nnc(-c3ccc(OC)cc3OC)s2)cc1
endpoint: mean survival time, dose: 25.0 mg/kg/injection, schedule: Q01DX009 (ip), vehicle: saline with Tween-80
  T/C: 94 % of control
[7]
  T/C: 88 % of control
[3]
  T/C: 88 % of control and 91 % of control

## CC1CC(O)C(=O)C(O[C@@H]2C[C@@H]3CC[C@@H]4[C@H](CC[C@]5(C)C(C6=CC(=O)OC6)CC[C@]45O)[C@@]3(C=O)C[C@H]2O)O1 (stereo partly specified)
endpoint: mean survival time, dose: 6.25 mg/kg/injection, schedule: Q01DX001 (ip), vehicle: saline with Tween-80
  T/C: 104 % of control
endpoint: mean survival time, dose: 12.5 mg/kg/injection, schedule: Q01DX001 (ip), vehicle: saline with Tween-80
  T/C: 104 % of control

## CCOc1ccc(Nc2c3ccccc3nc3ccccc23)cc1
[4]
  T/C: 88 % of control

## CC(C)CC(NC(=O)CCl)C(=O)O (stereo unspecified)
[3]
  T/C: 101 % of control
[1]
  T/C: 97 % of control
[4]
  T/C: 96 % of control
[2]
  T/C: 98 % of control
[5]
  T/C: 101 % of control
[6]
  T/C: 96 % of control
